Like-named read-outs stand apart in the source and are kept apart here.
Experiments:
[1] = design: method as in PMID 23455672; settings: cited from earlier work
[2] = LogBB calculation, Log (Cbrain/Cplasma); assay type: in vivo, mouse
Method: LogBB of apocynin was calculated as described previously ^22 using the equation: LogBB = Log (Cbrain/Cplasma). We used the values from 1 to 30 minutes detected in both plasma and brain tissues for LogBB calculation since apocynin plasma concentration was fallen to ~10 ng/mL (limit of quantification) after 30 minutes of iv injection, n = 3 mice/per time point.

Nox2 = assay: Brain Nox2 expression by immunofluorescence, HFD mouse model; assay type: in vivo; settings: HFD brain sections, apocynin 5 mmol/L in drinking water, vs HFD
Method: The experiments were performed exactly as described previously. ^23 Midbrain (containing hippocampus and ventral tegmental area regions) cryosections were used for the experiments. Primary antibodies were used at 1:250 dilution. Bovine serum albumin (2%) was used in the place of primary antibodies as a negative control. Biotin‐conjugated secondary antibody was used at 1:1000 dilution. Specific binding of antibodies was detected by streptavidin‐Cy3. Images were captured using a Nikon fluorescence microscope (Eclipse Ti2‐E). Fluorescence intensities were quantified as described above.

[3] = Body weight in HFD-induced obesity and accelerated aging mouse model; assay type: in vivo; settings: HFD 16 weeks, apocynin 5 mmol/L in drinking water, vs HFD without apocynin
Method: Apocynin was supplied in drinking water (5 mmol/L) for the treatment group. Body weights were measured weekly. Mice were sacrificed at 11 months of age and organs were harvested for further experiments. […] Male mice at 7 months of age were randomly assigned (n = 6/per group) to a HFD: 45% kcal fat, 20% kcal protein and 35% kcal carbohydrate (Special Diets Services), or a NCD: 9.3% kcal fat, 25.9% kcal protein, and 64.8% kcal carbohydrate (LabDiet Ltd) for 16 weeks. Apocynin was supplied in drinking water (5 mmol/L). Body weights were measured weekly. Mice (at 11 months) were fasted 8 hours before being sacrificed by an overdose of pentobarbital. The body weights were recorded and organs were harvested.

[4] = Time-dependent distribution of apocynin in plasma, urine and tissues after iv bolus injection (HPLC-MS/MS); assay type: in vivo, mouse
Method: All studies were performed in accordance with the protocols approved by the Home Office under the Animals (Scientific Procedures) Act 1986, UK. For the PKPD study, male CD1 mice (Charles River Ltd) at 12 weeks of age with a body weight range between 25 and 30 g were used for the study. Mice were fasted 12 hours before bolus iv injection of apocynin at 5 mg/kg body weight (dosing volume 5 mL/kg) via a lateral tail vein. Control mice were injected with vehicle (solvent of apocynin) at each time points. Four mice/per time points were sacrificed at 0, 1, 2.5, 5, 15, 30, 60 minutes and then at 3, 6, 12, and 24 hours after iv injection of apocynin. Blood samples were collected and centrifuged at 2000 g, 4°C for 10 minutes for plasma collection. Urine samples were collected from bladders. Tissues were harvested for further experiments.
The detection of apocynin in tissue sample was performed as described previously with some modifications. ^17 In brief, apocynin was detected using an Accela HPLC coupled to a linear ion‐trap tandem mass spectrometry (LTQ‐Orbitrap XL; Thermo‐Fisher Scientific) (HPLC‐MS/MS) in the negative ion mode. Phenacetin (500 ng/mL) was used as an internal standard in every vial. A reversed‐phase 50 × 2.1 mm ID, […], 175 Å pore C18 Hypersil Gold column (Thermo Scientific) was used with injection volume set at 5 µL for the separation of apocynin and phenacetin. Calibration curve used for PK analysis was constructed by spiking apocynin in mouse plasma using eight calibrators ranging from 1 to 10000 ng/mL with great reproducibility and R ^2 ≥ 0.996 for subsequent 5 separate experiments on different days. […] Limit of detection for apocynin was set up at signal to noise ratio ≥ 3, ^18 which is 1 ng/mL in our system. The limitation of quantification was set up at signal to noise ratio ≥ 10, which is 10 ng/mL in our system. Orbitrap component was used for the full scan spectra of apocynin and diapocynin.

[5] = test system: O2·‐ production in tissue homogenates; assay: O2·- production in tissue homogenates by lucigenin-chemiluminescence after iv injection (PD profile); assay type: in vivo, mouse; settings: iv 5 mg/kg
Method: All studies were performed in accordance with the protocols approved by the Home Office under the Animals (Scientific Procedures) Act 1986, UK. For the PKPD study, male CD1 mice (Charles River Ltd) at 12 weeks of age with a body weight range between 25 and 30 g were used for the study. Mice were fasted 12 hours before bolus iv injection of apocynin at 5 mg/kg body weight (dosing volume 5 mL/kg) via a lateral tail vein. Control mice were injected with vehicle (solvent of apocynin) at each time points. Four mice/per time points were sacrificed at 0, 1, 2.5, 5, 15, 30, 60 minutes and then at 3, 6, 12, and 24 hours after iv injection of apocynin. Blood samples were collected and centrifuged at 2000 g, 4°C for 10 minutes for plasma collection. Urine samples were collected from bladders. Tissues were harvested for further experiments. ROS production was measured using tissue homogenates by three complementary techniques: lucigenin (5 µmol/L)‐chemiluminescence (Molecular Devices); DHE (2 µmol/L) fluorescence on brain tissue sections, and brain tissue lipid peroxidation by malondialdehyde (MDA) assay as described previously. ^5 The specificity of detection of O2·‐ was confirmed by adding tiron (10 mmol/L), a non‐enzymatic O2·‐ scavenger. The enzymatic sources of O2·‐ production were identified using inhibitors targeting nitric oxide synthase (L‐N^G‐Nitro arginine methyl ester, L‐NAME, 100 μmol/L), the mitochondrial complex‐1 enzymes (rotenone, 50 μmol/L), xanthine oxidase (oxypurinol, 250 μmol/L), flavo‐proteins (diphenyleneiodonium, DPI, 20 μmol/L), or superoxide dismutase (SOD) (200 U/mL). The DHE fluorescence was captured using a Nikon fluorescence microscope (Eclipse Ti2‐E). The fluorescence intensity was quantified from at least three random images per section with three sections/per sample.

[6] = CD1 mice, iv bolus 5 mg/kg, 5 minutes, per tissue weight

COc1cc(C(C)=O)ccc1O [Apocynin, 4‐hydroxy‐3‐methoxyacetophenone]
pKa value [1]: 8.17 | LogBB ([2]; at 1 minute after iv injection): −0.1 | LogBB at 30 min ([2]; male, CD1, mouse, brain/plasma, 5 mg/kg, at 30 minutes after iv injection): 1 | effect on brain Nox2 expression (Nox2): significantly reduced | effect on HFD-induced increase in body weight [3]: significantly reduced | time apocynin remained detectable in urine ([4]; CD1 mice, iv bolus 5 mg/kg): up to 12 hours | plasma apocynin concentration (peak) ([4]; CD1 mice, iv bolus 5 mg/kg, 1 minute after injection): 5494 ± 400 ng/mL | brain apocynin concentration (peak) ([4]; CD1 mice, iv bolus 5 mg/kg, 1 minute, per tissue weight): 4603 ± 208 ng/g | heart apocynin peak concentration [4, 6]: 3161 ± 309 ng/g | liver apocynin peak concentration [4, 6]: 2853 ± 35 ng/g | urine apocynin peak concentration ([4]; CD1 mice, iv bolus 5 mg/kg, at 30 minutes): 20492 ng/mL | apocynin detection in urine ([4]; CD1 mice, iv bolus 5 mg/kg, until 5 minutes after injection): undetectable | half-life in the brain compared with plasma ([4]; after iv injection): longer | renal clearance ([4]; after iv injection): high | concentration at 30 min ([4]; male, mouse, brain, CD1 mice, iv bolus 5 mg/kg, read-out: brain apocynin concentration): 103 ± 4 ng/g | concentration at 5 min ([4]; male, mouse, plasma, CD1 mice, iv bolus 5 mg/kg, 5 minutes): 3240 ± 1560 ng/mL | concentration at 15 min ([4]; male, mouse, plasma, CD1 mice, iv bolus 5 mg/kg, 15 minutes): ~50 ng/mL | concentration at 30 min ([4]; male, mouse, plasma, CD1 mice, iv bolus 5 mg/kg, read-out: plasma apocynin concentration): ~10 ng/mL | concentration at 3 h ([4]; male, mouse, urine, CD1 mice, iv bolus 5 mg/kg, 3 hours): 230 ± 31 ng/mL | inhibition at 5 mg/kg ([5]; Mus musculus, 1 min, brain homogenates, starting at 1 minute): 60.4 ± 25.4% | duration of inhibition of brain O2·- production ([5]; brain homogenates): up to 60 minutes | start of inhibition of brain O2·- production ([5]; brain homogenates): 1 min | time at which inhibition of brain O2·- production became significant ([5]; brain homogenates): 2.5 min | time at which inhibition of brain O2·- production disappeared ([5]; brain homogenates): 3 h | duration of inhibition of heart O2·- production ([5]; heart homogenates): ~ 60 minutes | start of inhibition of heart O2·- production ([5]; heart homogenates): 1 min | time at which inhibition of heart O2·- production became significant ([5]; heart homogenates): 2.5 min | time at which inhibition of heart O2·- production disappeared ([5]; heart homogenates): 3 h | duration of inhibition of liver O2·- production ([5]; liver homogenates): ~ 60 minutes | time at which inhibition of liver O2·- production disappeared ([5]; liver homogenates): 3 h | onset of inhibition of liver O2·- production ([5]; liver homogenates, vs time 0 control): ≤ 1 min
